# Data as given in patent US4168317A, “Amino derivatives of 4-hydroxy-1,2-benzisothiazole” (BASF Aktiengesellschaft, priority 1977, dated 1979).
# Structures can show the parent of a compound that is named as a salt.
# Tests used:
# [1] = in vivo; details: mouse; for LD50 at 24 h: ip
# Description: The acute toxicity was determined on groups of 10 or 20 female Swiss mice weighing 20-26 g, the compounds being administered intraperitoneally.
# [2] = target: T1, β2-receptors on the blood vessels (Rattus norvegicus, UniProt P10608); test: β2-sympatholytic action: inhibition of Isoproterenol blood pressure reduction, rats under urethane narcosis; format: in vivo; details: for β2-Sympatholytic action R.A. (relative activity): Propranolol = 1.00, intravenous; for Q: quotient defined in footnote 6 (drawing 8), cardioselectivity, β2 versus β1 dose; for ED50: rat, iv, read-out: β2-Sympatholytic action ED 50 (dose which inhibits the Isoproterenol blood pressure reduction by 50%)
# T1 construct: was tested on rats, weighing 230-280 g, under urethane narcosis; from tissue; host or cells: blood vessels in the living rat under urethane narcosis (in vivo)
# T1 sequence (P10608 whole entry): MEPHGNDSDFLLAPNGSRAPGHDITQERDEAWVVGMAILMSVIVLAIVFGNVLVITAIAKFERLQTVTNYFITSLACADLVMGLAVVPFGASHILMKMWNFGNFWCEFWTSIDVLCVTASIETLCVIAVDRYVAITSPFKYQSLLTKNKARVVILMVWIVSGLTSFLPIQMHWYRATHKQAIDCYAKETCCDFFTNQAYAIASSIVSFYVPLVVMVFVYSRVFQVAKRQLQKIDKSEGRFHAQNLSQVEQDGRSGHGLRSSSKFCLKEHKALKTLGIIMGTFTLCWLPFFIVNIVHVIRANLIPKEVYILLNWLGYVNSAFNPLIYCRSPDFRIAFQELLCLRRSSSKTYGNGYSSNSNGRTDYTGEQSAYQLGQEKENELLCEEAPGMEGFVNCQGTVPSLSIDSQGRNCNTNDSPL
# [3] = target: T2, cardiac β1-receptors (Rattus norvegicus, UniProt P18090); test: β1-sympatholytic action: inhibition of Isoproterenol tachycardia, pithed rats; format: in vivo, rats (Sprague-Dawley; details: for β1-Sympatholytic action R.A. (relative activity): Propranolol = 1.00, pithed rats, intravenous; for ED50: rat, iv, 5 min, read-out: β1-Sympatholytic action ED 50 (dose which inhibits the Isoproterenol tachycardia by 50%); for cardiac β1-receptors blocked at doses lower than those required to block β2-receptors / β1-sympatholytic activity greater than that of Propranolol: rats
# T2 construct: in pithed rats (Sprague-Dawley, Mus rattus; weight 230-280 g) causes increases in pulse rate; from tissue; host or cells: heart in the living pithed Sprague-Dawley rat (in vivo)
# T2 sequence (P18090 whole entry): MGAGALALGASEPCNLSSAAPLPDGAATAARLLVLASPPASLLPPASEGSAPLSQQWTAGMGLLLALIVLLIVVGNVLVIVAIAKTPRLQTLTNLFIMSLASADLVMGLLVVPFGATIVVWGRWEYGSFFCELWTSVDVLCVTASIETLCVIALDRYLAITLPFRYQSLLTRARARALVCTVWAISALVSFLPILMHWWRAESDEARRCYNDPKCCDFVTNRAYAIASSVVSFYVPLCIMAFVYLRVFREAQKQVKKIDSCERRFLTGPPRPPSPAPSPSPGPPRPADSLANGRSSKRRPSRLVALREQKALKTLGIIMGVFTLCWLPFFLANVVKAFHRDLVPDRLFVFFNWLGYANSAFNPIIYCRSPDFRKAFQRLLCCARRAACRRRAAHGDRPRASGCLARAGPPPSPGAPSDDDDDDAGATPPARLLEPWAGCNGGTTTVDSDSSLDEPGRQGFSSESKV
SMILES,"Therapeutic range, absolute [1]","Therapeutic range, relative [1]",LD50 at 24 h [1] [µg/kg],β2-Sympatholytic action R.A. (relative activity) ([2]; rats under urethane narcosis),Q [2],ED50 [2] [µg/kg],β1-Sympatholytic action R.A. (relative activity) [3],ED50 [3] [µg/kg],cardiac β1-receptors blocked at doses lower than those required to block β2-receptors [3] [times],selectivity ratio [1],β1-sympatholytic activity greater than that of Propranolol [3] [times],"reduction of mean pressure of the carotid artery ([2]; Isoproterenol 0.215 μg/kg intravenously, rats under urethane narcosis, average) [%]"
"CC(C)NCC(O)COc1cccc2sncc12 (stereo not drawn) [Example 1, 4-(2-hydroxy-3-isopropylaminopropoxy)-1,2-benzisothiazole hydrochloride]","32,700",3.72,62100,2.71,2.21,4.2,6.47,1.9,2,,,
"CC(C)(C)NCC(O)COc1cccc2sncc12 (stereo not drawn) [Example 2, 4-(2-hydroxy-3-tert.-butylamino-propoxy)-1,2-benzisothiazole hydrochloride]","94,500",10.76,154000,2.84,2.47,4.02,7.55,1.63,,,,
"CCC(C)NCC(O)COc1cccc2sncc12 (stereo not drawn) [Example 14, 4-(2-Hydroxy-3-sec.-butylamino-propoxy)-1,2-benzisothiazole]",,7.18,96400,1.08,6.93,10.6,8.04,1.53,,63000,8,
"CCC(C)(C)NCC(O)COc1cccc2sncc12 (stereo not drawn) [Example 15, 4-[2-Hydroxy-3-(2-methyl-butyl-2-amino)-propoxy]-1,2-benzisothiazole]",,8.92,144000,1.38,4.48,8.24,6.68,1.84,,78300,,
"CCC(C)(CC)NCC(O)COc1cccc2sncc12 (stereo not drawn) [Example 16, 4-[2-Hydroxy-3-(3-methyl-pentyl-3-amino)-propoxy]-1,2-benzisothiazole]",,4.44,128000,0.94,3.69,12.1,3.75,3.28,,39000,,
"C#CC(C)(C)NCC(O)COc1cccc2sncc12 (stereo not drawn) [Example 27, 4-[2-Hydroxy-3-(2-methyl-but-3-ynyl-2-amino)-propoxy]-1,2-benzisothiazole]",,9.11,184000,1.98,2.50,5.75,5.35,2.3,,80000,,
"COCC(C)NCC(O)COc1cccc2sncc12 (stereo not drawn) [Example 29, 4-[2-Hydroxy-3-(1-methoxy-propyl-2-amino)-propoxy]-1,2-benzisothiazole]",,3.11,135000,0.26,8.90,44,2.48,4.95,,27300,2.5,
"CCCC(C)NCC(O)COc1cccc2sncc12 (stereo not drawn) [Example 35, 4-[2-Hydroxy-3-(pentyl-2-amino)-propoxy]-1,2-benziso-thiazole]",,2.72,60300,0.42,10.70,27,4.88,2.52,11,23900,,
"CC(C)NCC(O)c1ccc(O)c(O)c1 (stereo not drawn) [Isoproterenol, reference compound]",,,,,,,,,,,,30
